Measurements as given in the NIST ThermoML archive (doi:10.1016/j.jct.2009.04.019).
Several values for one entry are separate records, joined by “and”; a condition that tells them apart may be missing. Identical values can stand only once.

Settings: Liquid, Transpiration method

C[C@H](O)CO [(+)-(S)-1,2-propanediol]
Settings | vapor or sublimation pressure
283.5 K | 0.00427 kPa
288.2 K | 0.00685 kPa
293.5 K | 0.01187 kPa and 0.00968 kPa
297.4 K | 0.01371 kPa
298.2 K | 0.01924 kPa
298.4 K | 0.01891 kPa
301.3 K | 0.025 kPa
301.4 K | 0.01968 kPa
303.3 K | 0.02341 kPa
303.4 K | 0.02968 kPa
305.4 K | 0.02776 kPa
306.3 K | 0.03848 kPa
306.4 K | 0.0369 kPa
309.3 K | 0.04816 kPa
310.4 K | 0.05059 kPa and 0.04222 kPa and 0.04205 kPa
312.3 K | 0.06434 kPa and 0.06424 kPa
313.2 K | 0.06711 kPa
313.3 K | 0.06784 kPa
313.4 K | 0.05485 kPa
315.4 K | 0.06624 kPa
316.2 K | 0.09048 kPa
316.3 K | 0.08971 kPa and 0.0869 kPa
318.3 K | 0.09934 kPa
318.4 K | 0.08522 kPa
319.3 K | 0.113 kPa
320.4 K | 0.1173 kPa and 0.09922 kPa
320.5 K | 0.09891 kPa
321.3 K | 0.1276 kPa
322.3 K | 0.1391 kPa
322.5 K | 0.1397 kPa
323.4 K | 0.1284 kPa
323.5 K | 0.1563 kPa and 0.1318 kPa
324.5 K | 0.1349 kPa
325.3 K | 0.1747 kPa and 0.1406 kPa
325.4 K | 0.1734 kPa
326.4 K | 0.1847 kPa
326.5 K | 0.1504 kPa
327.3 K | 0.1676 kPa
327.4 K | 0.1988 kPa
328.3 K | 0.2178 kPa
328.4 K | 0.184 kPa
328.5 K | 0.1824 kPa
328.6 K | 0.2155 kPa
329.5 K | 0.2399 kPa
331.3 K | 0.2757 kPa
331.4 K | 0.2346 kPa
333.3 K | 0.2616 kPa
335.4 K | 0.303 kPa
338.4 K | 0.3685 kPa
